Measurements as given in patent publication US7157466B2, “Quinazoline ditosylate salt compounds” (SmithKline Beecham (Cork) Limited, priority 2000, dated 2007).
Read-outs that look alike come from different tables or passages of the source.

Experiments:
[1] = Slurry equilibration, relative physical stability of anhydrate and monohydrate crystal forms; settings: 25° C.; for Equilibrium Form: 1:1 anhydrate/monohydrate slurry in MeOH/H2O
[2] = test system: head and neck (HN5) cell line; test: Methylene blue growth inhibition assay, HN5; assay type: cell-based; settings: Homo sapiens, read-out: HN5 IC50 uM Cell
Description: (§1) Human breast (BT474), head and neck (HN5) and gastric tumor (N87) cell lines and human foreskin Fibroblasts (HFF) were cultured in low glucose DMEM (Life Technologies 12320-032) containing 10% fetal bovine serum (FBS) at 37° C. in a humidified 10% CO2, 90% air incubator. The SV40 transformed human mammary epithelial cell line HB4a was transfected with either human H-ras cDNA (HB4a r4.2) or the human c-erbB2 cDNA (HB4a c5.2). The HB4a clones were cultured in RPMI containing 10% FBS, insulin (5 μg/ml), hydrocortisone (5 μg/ml), supplemented with the selection agent hygromycin B (50 μg/ml). Cells were harvested using trypsin/EDTA, counted using a haemocytometer, and plated in […] of the appropriate media, at the following densities, in a 96-well tissue culture plate (Falcon 3075): BT474 10,000 cells/well, HN5 3,000 cells/well, N87 10,000 cells/well, HB4a c5.2 3,000 cells/well, HB4a r4.2 3,000 cells/well, HFF 2500 cells/well. The next day, compounds were diluted in DMEM containing 100 mg/ml gentamicin, at twice the final required concentration, from 10 mM stock solutions in DMSO. 100 ml/well of these dilutions were added to the 100 ml of media currently on the cell plates. Medium containing 0.6% DMSO was added to control wells. Compounds diluted in DMEM were added to all cell lines, including the HB4a r4.2 and HB4a c5.2 cell lines. The final concentration of DMSO in all wells was 0.3%. Cells were incubated at 37° C., 10% CO2 for 3 days. Medium was removed by aspiration. Cell biomass was estimated by staining cells with 100 μl per well methylene blue (Sigma M9140, 0.5% in 50:50 ethanol:water), and incubation at room temperature for at least 30 minutes. Stain was removed, and the plates rinsed under a gentle stream of water, and air-dried. To release stain from the cells 100 μl of solubilization solution was added (1% N-lauroyl sarcosine, Sodium salt, Sigma L5125, in PBS), and plates were shaken gently for about 30 minutes. Optical density at 620 nm was measured on a microplate reader. Percent inhibition of cell growth was calculated relative to vehicle treated control wells. […]

[3] = Moisture sorption testing; assay type: physicochemical; settings: humidities e.g. 20–75% relative humidity (RH)
Description: Approximately 12 mg of N-{3-Chloro-4-[(3-fluorobenzyl) oxy]phenyl}-6-[5-({[2-(methanesulphonyl)ethyl]amino}methyl)-2-furyl]-4-quinazolinamine ditosylate monohydrate salt prepared according to Example 10 was weighed into a sample pan of a moisture sorption apparatus (model number SGA-100, made by VTI). The sample was dried at 60° C. under a nitrogen stream until the weight loss was less than 0.015% in 5 minutes. The relative humidity (RH) was then increased (adsorption) to 5, 15, 25, 35, 45, 55, 65, 75, 85 and 95%—at each step, equilibrium was defined as a weight change of less than 0.015% in 5 minutes. The relative humidity was then decreased (desorption) to 90, 80, 70, 60, 50, 40, 30, and 20% with the same equilibrium condition. The sorption curve (y-axis: Weight—% change vs. x-axis: % RH) is depicted in FIG. 3(a).
Approximately 15 mg of N-{3-Chloro-4-[(3-fluorobenzyl) oxy]phenyl}-6-[5-({[2-(methanesulphonyl)ethyl]amino}methyl)-2-furyl]-4-quinazolinamine di-HCl salt was weighed into a sample pan of a moisture sorption apparatus (model number SGA-100, made by VTI). The sample was dried at 60° C. under a nitrogen stream until the weight loss was less than 0.015% in 5 minutes. The relative humidity was then increased (adsorption) to 5, 15, 25, 35, 45, 55, 65, 75, 85 and 95%—at each step, equilibrium was defined as a weight change of less than 0.015% in 5 minutes. […]

[4] = test system: gastric tumor (N87) cell line; test: Methylene blue growth inhibition assay, N87; assay type: cell-based; settings: Homo sapiens, 72 h, read-out: N87 IC50 uM Cell
Description: as §1, with “The next day, compounds were diluted in DMEM containing 100 mg/ml gentamicin, at twice the final required concentration, from 10 mM stock solutions in DMSO. 100 ml/well of these dilutions were added to the 100 ml of media currently on the cell plates.” left out, “Cell biomass was estimated by staining cells with 100 μl per well methylene blue (Sigma M9140, 0.5% in 50:50 ethanol:water), and incubation at room temperature for at least 30 minutes. Stain was removed, and the plates rinsed under a gentle stream of water, and air-dried. To release stain from the cells 100 μl of solubilization solution was added (1% N-lauroyl sarcosine, Sodium salt, Sigma L5125, in PBS), and plates were shaken gently for about 30 minutes.” left out

[5] = 72 h, HN5 cells, 3 days, methylene blue

CS(=O)(=O)CCNCc1ccc(-c2ccc3ncnc(Nc4ccc(OCc5cccc(F)c5)c(Cl)c4)c3c2)o1 [N-{3-Chloro-4-[(3-fluorobenzyl)oxy]phenyl}-6-[5-({[2-(methanesulphonyl)ethyl]amino}methyl)-2-furyl]-4-quinazolinamine ditosylate]
Equilibrium Form ([1]; water volume 0%, RH 0%): Anhydrate | Equilibrium Form ([1]; water volume 2%, RH 7%): Anhydrate | Equilibrium Form ([1]; water volume 5%, RH 15%): Monohydrate | Equilibrium Form ([1]; water volume 10%, RH 26%): Monohydrate | Equilibrium Form ([1]; water volume 20%, RH 43%): Monohydrate | Equilibrium Form ([1]; water volume 40%, RH 66%): Monohydrate | Equilibrium Form ([1]; water volume 60%, RH 80%): Monohydrate | Equilibrium Form ([1]; water volume 80%, RH 91%): Monohydrate | Equilibrium Form ([1]; water volume 90%, RH 95%): Monohydrate | Equilibrium Form ([1]; water volume 100%, RH 100%): Monohydrate

CS(=O)(=O)CCNCc1ccc(-c2ccc3ncnc(Nc4ccc(OCc5cccc(F)c5)c(Br)c4)c3c2)o1 [Example 12, (4-(3-Fluoro-benzyloxy)-3-bromophenyl)-(6-(5-((2-methanesulphonyl-ethylamino)-methyl)-furan-2-yl)quinazolin-4-yl)-amine Ditosylate]
IC50 [2, 5]: < 5 µM

CS(=O)(=O)CCNCc1ccc(-c2ccc3ncnc(Nc4ccc(OCc5cccc(F)c5)c(Cl)c4)c3c2)o1.Cl.Cl [di-HCl salt, N-{3-Chloro-4-[(3-fluorobenzyl)oxy]phenyl}-6-[5-({[2-(methanesulphonyl)ethyl]amino}methyl)-2-furyl]-4-quinazolinamine di-HCl salt]
Water sorption [3]: sorbs very large amounts of water

CS(=O)(=O)CCNCc1ccc(-c2ccc3ncnc(Nc4ccc(OCc5cccc(F)c5)c(Cl)c4)c3c2)o1 [Example 10, N-{3-Chloro-4-[(3-fluorobenzyl)oxy]phenyl}-6-[5-({[2-(methanesulphonyl)ethyl]amino}methyl)-2-furyl]-4-quinazolinamine ditosylate monohydrate]
RH at which the monohydrate becomes the thermodynamically stable form ([1]; slurry equilibration, remains stable up through 100% RH): 7–15 % RH

CS(=O)(=O)CCNCc1nc(-c2ccc3ncnc(Nc4ccc(OCc5cccc(F)c5)c(Cl)c4)c3c2)cs1 [Example 13, (4-(3-Fluoro-benzyloxy)-3-chlorophenyl)-(6-(2-((2-methanesulphonyl-ethylamino)-methyl)-thiazol-4-yl)quinazolin-4-yl)-amine ditosylate]
IC50 [2, 5]: < 5 µM

CS(=O)(=O)CCNCc1ccc(-c2ccc3ncnc(Nc4ccc(OCc5cccc(F)c5)c(Cl)c4)c3c2)o1 [Example 8, N-{3-Chloro-4-[(3-fluorobenzyl)oxy]phenyl}-6-[5-({[2-(methanesulphonyl)ethyl]amino}methyl)-2-furyl]-4-quinazolinamine ditosylate anhydrate]
IC50 ([2]; HN5, 72 h): < 5 µM | IC50 [4]: < 5 µM
